Measured values as given in patent US20170009228A1, “BIOLOGICAL MATERIALS AND THERAPEUTIC USES THEREOF” (IMPERIAL INNOVATIONS LIMITED, priority 2014, published 2017).

Tests used:
IL-1 = test: Addition of IL-1 receptor antagonist before FBG stimulation; format: cell-based; settings: 10 μg/ml IL1 receptor antagonist, data not shown
Method: (§1) Where stated, cells were pre-incubated with 10 μg/ml anti-CD14 antibody, 10 μg/ml IL1 receptor antagonist, 10 μg/ml anti-TLR2 antibody, 25 μg/ml anti-TLR4 antibody, 10 or 25 μg/ml isotype control antibody, 25 μg/ml polymyxin B, or 1 μg/ml msbB LPS, for 30 minutes at 37° C. before stimulation. Where stated, recombinant tenascin-C and FBG, and LPS were boiled for 15 minutes before addition to cells
(§2) Supernatants were subsequently examined for the presence of the cytokines TNF-α, IL-6, and IL-8 by enzyme-linked immunosorbent assay (ELISA) according to the manufacturer's instructions. Absorbance was read on a spectrophotometric ELISA plate reader (Labsystems Multiscan Biochromic, Vantaa, Finland) and analyzed using the Ascent software program (Thermo Labsystems, Altrincham, UK).

[1] = system: primary human macrophages; test: Cytokine synthesis in primary human macrophages stimulated with tenascin-C or its domains; format: cell-based
Method: Human monocytes were isolated from peripheral blood (London Blood Bank) and macrophages were derived from monocytes after differentiation for 4 days with 100 ng/ml of M-CSF as previously described (Foxwell (1998)).
(§3) Immediately after isolation, RA membrane cells and macrophages were cultured at 1×10^5 cells/well in RPMI 1640 containing 10% (v/v) FBS and 100 U/ml (Units/ml) penicillin/streptomycin in 96-well tissue culture plates for 24 hours before stimulation. Synovial fibroblasts (used only at either passage number 2 or 3) were cultured at 1×10^4 cells/well in DMEM containing 10% (v/v) FBS and 100 U/ml penicillin/streptomycin in 96-well tissue culture plates for 24 hours before stimulation.
(§4) Cells were incubated for 24 hours at 37° C. with the indicated doses of tenascin-C and recombinant tenascin-C fragments (1.0 μM-1.0 nM). Cells were also stimulated where indicated with LPS (1 ng/ml for human macrophages, 10 ng/ml for human fibroblasts, RA membrane cells and HEKs, 100 ng/ml for MEFS and BMDMs and 10 ng/ml for HEKS), PAM3 (10 ng/ml for human macrophages, human fibroblasts, and HEKs, 100 ng/ml for MEFs and BMDMs), murine IL-1 (5 ng/ml for MEFS) and murine TNF-α (100 ng/ml for MEFS). Unless specifically stated otherwise rough LPS was used for in vitro studies.
as §1, §2

RA synovial fibroblasts = test: Cytokine synthesis in RA synovial fibroblasts stimulated with tenascin-C, FBG or LPS; format: cell-based, human
Text: RA membrane cells (representing a mixed population of all synovial cell types) were isolated from synovial membranes obtained from patients undergoing joint replacement surgery as previously described (Brennan (1989)). RA synovial fibroblasts were isolated from the mixed population of RA membrane cells as previously described (Brennan (1989)). The study was approved by the local Trust ethics committee (Riverside NHS Research Committee), and waste tissue (synovium after joint replacement surgery) was obtained only after receiving signed informed consent from the patient and anonymyzing the tissue to protect patient identity.
as §3, §4, §2

serum from RA patients = test: Western blot of citrullinated tenascin-C probed with serum from RA patients or healthy controls; format: binding, human; settings: sera from RA patients or normal healthy controls, not shown
Method: SDS PAGE of Citrullinated Proteins 33.33 ul of citrullination reaction (cit-TNC alone or cit-TNC combined with cit-FBG) was loaded into NuPAGE® Novex 4-12% Bis-tris gel using a 1.0 mm 2D single lane well.
After electrophoresis proteins were transferred to nitrocellulose and the membrane blocked and then cut into strips (up to 8 strips ˜0.7 cm wide). Strips were incubated with serum from RA patients or normal healthy individuals diluted 1:100 in 5% milk TBS-tween. Strips were incubated in 15 ml falcon tubes on rollers 1 h room temperature, then washed 3 ×5 min, 1×15 min in tubes with TBS-Tween. Strips were then incubated with secondary mouse anti-human Ig 1:5000 1 h in room temperature, then washed 3×5 min, 1×15 min in the dish with TBS-tween. Strips were finally incubated with ECL reagents and exposed to film.

Row | Substance | FBG induction of cytokines (IL-1) | heat and polymyxin B sensitivity of cytokine stimulation ([1]; boiled 15 min, 25 μg/ml polymyxin B pre-incubation) | production of TNF-α, IL-6 and IL-8 ([1]; human macrophages, 24 h, 1.0 μM-1.0 nM) | IL-6 synthesis (RA synovial fibroblasts; RA synovial fibroblasts, 24 h) | TNF-α synthesis (RA synovial fibroblasts; fibroblasts, data not shown) | reactivity with sera in blots (serum from RA patients)
1 | IL-1 receptor antagonist: IL-1 receptor antagonist from R&D Systems | did not inhibit |  |  |  |  | 
2 | tenascin-C: recombinant full-length human tenascin-C purified from HEK293 conditioned medium |  | heat sensitive and unaffected by the LPS inhibitor, polymyxin B | dose dependently stimulated | only induced IL-6 synthesis | Neither LPS nor tenascin-C induced TNF-α synthesis | No reactivity
